From patent US20090270363A1, “2-Aryl- and 2-Heteroarylthiazolyl Compounds, Methods for Their Preparation and Use Thereof” (Wyeth, priority 2008, published 2009)

How the values were obtained:
[1] = system: Xenografts of a Human Breast Carcinoma Cell Line (MDA-MB-361); assay: Tumor xenograft study versus Herceptin (Table 2); type: in vivo; settings: 40 mg/kg/dose PO, days 1 through 20
Experimental: (§1) Selected fused bicyclic 2-aryl- or 2-heteroarylthiazolyl compounds of formula I were tested for their activity in a securin parental cell line (HCT116 FB) and a securin knockout (KO) cell line. […] The in-vivo activity of selected fused bicyclic 2-aryl- or 2-heteroarylthiazolyl compounds of formula I was studied in cells growing as xenografts in athymic (nude) mice. The effect of Examples 164, 166 and 167 was studied in xenografts of a human breast carcinoma cell line (MDA-MB-361).
(§2) In-vivo Activity in Tumor Xenografts. […] The fused bicyclic 2-arylthiazolyl compounds were formulated using 0.5% Methocel™ (methylcellulose) and 0.4% Tween 80™ (polysorbate-80 and oleic acid) and administered daily orally (PO), by gavage or by syringe. Tumor mass [(length×width^2)/2] was determined every 7 days. Inhibition of tumor growth was calculated relative to conventional (vehicle treated) controls.

[2] = system: HCT116 cells (Securin+/+, securin parental, HCT116 FB); assay: Growth inhibition (sulforhodamine B, 5 days) of securin parental cells; type: cell-based; settings: Homo sapiens, HCT-116, 120 h, SRB
Experimental: (§3) IC50 analysis was performed for selected fused bicyclic 2-aryl or 2-heteroarylthiazolyl compounds that were tested on HCT116 cells and Securin “knock out” cell lines.
(§4) Cell Culture—HCT116 and securin “knock out” cells. HCT116 and securin “knock out” cells (D8 and F3) were grown in RPMI+5% fetal bovine serum and gentamycin. They were maintained in a humidified 37° C. incubator with 5% CO2. Since the securin “knock out” cells have active chromosomal instability, cells were used at a low passage number of 2-13 passages. At or before passage 13 a new vial of cells was thawed and used for the screen. Cell seeding—HCT116 cells and securin “knock out” cells were trypsinized and suspended in RPMI+5% FBS at a density of 27,000 cells/mL. HCT116 and securin “knock out” cells were seeded separately in wells of a 96-well plate (Falcon Cat # 35-3872) at a cell density of 4000 cells per well. Cells were seeded in 150 μL of RPMI media containing 5% FBS and gentamycin. Cell seeding was performed under aseptic conditions. Cells were allowed to attach and grow overnight in a humidified 37° C. incubator.
(§5) Compound Dilution and Dispensation. A series of stock solutions, 10 mg/mL of fused bicyclic 2-aryl- or 2-heteroarylthiazolyl compounds to be tested, were brought to room temperature. The compounds were diluted 1:50 in RPMI+5% FBS (Highest concentration 200 μg/mL). The compounds were then serially diluted 1:3 across a deep-well titration plate resulting in final concentrations in the plate of 200, 66.7, 22.2, 7.4, 2.4, 0.8, 0.27, 0.091, 0.03, 0.01, and 0.0034 μg/mL with one well left without a compound. 50 μL of this dilution series was added to the 150 μL of cells to result in a final concentration of compound in with the cells of 50, 16.6, 5.5, 1.8, 0.6, 0.2, 0.068, 0.023, 0.0076, 0.0025, and 0.00084 μg/mL. The dilution and addition of compounds to the plates is performed using a Multimek 96 Robot (Beckman Coulter).
(§6) Incubation and analysis. After dosing, the cells in the 96 well plates were returned to the humidified 37° C. incubator. The compounds remained on the cells for 5 days. After 5 days, the cells were fixed to the plates with the addition of 50 μL of 50% (vol/vol) Trichloro Acetic Acid ([…]). The cells were fixed at 4° C. for 1 hour. The plates were washed 5 times in distilled water and allowed to dry. The cells were stained with 0.4% sulforhodamine B (Sigma) in 1% acetic acid. The cells were stained for 15 minutes at room temperature. The plates were then washed 3 times in 1% acetic acid. The plates were dried and the dye was solubilized in 10 mM Tris at pH 8.0. The plates were read on the Absorbence 560 setting on a Victor^2 V Model 1420 Multilabel HTS counter (Perkin Elmer).
(§7) Analysis of Results—IC50 data. Absorbence data was read off of the Victor and was converted to a percentage of the control (untreated) values. IC50 values were graphed and the point at which a 50% inhibition of the control level was determined. […] If the model was not able to determine an IC50, the IC50 was assigned to the lowest concentration that gives a 50% or greater decrease in absorbence compared to control levels. If the calculated IC50 value for a cell line exceeds the top concentration for the assay (typically 50 μg/mL), the assay was scored as >50.
(§8) Selectivity Ratio. The Selectivity Ratio is the ratio of IC50s between the parent cell line and the knock out cell line and is always a positive number and is typically an integer.

[3] = system: securin "knock out" cells D8 (Securin-/-); assay: Growth inhibition (sulforhodamine B, 5 days) of securin knock out cells D8; type: cell-based; settings: for IC50: 120 h, securin knock out D8 cells, 5 days, SRB; for Selectivity Ratio D8: IC50 HCT116 / IC50 securin KO D8
Experimental: as §3, §4, §5, §6, §7, §8

[4] = system: securin "knock out" cells F3 (Securin-/-); assay: Growth inhibition (sulforhodamine B, 5 days) of securin knock out cells F3; type: cell-based; settings: for IC50: 120 h, securin knock out F3 cells, 5 days, SRB; for Selectivity Ratio F3: IC50 HCT116 / IC50 securin KO F3
Experimental: as §3, §4, §5, §6, §7, §8

[5] = system: Xenografts of a Human Breast Carcinoma Cell Line (MDA-MB-361); assay: Tumor xenograft study versus Vincristine (Table 3); type: in vivo
Experimental: as §1, §2
The effectiveness of Examples 164, 166 and 167 versus Vincristine at controlling tumor growth was studied and the results are summarized in Table 3 and FIG. 2.

[6] = 100 mg/kg/dose PO, BID, days 2 through 21
[7] = 100 mg/kg/dose PO, BID, days 2 through 21, BID vehicle group listed
[8] = 150 mg/kg/dose PO, days 2 through 21
[9] = 0.8 mg/kg/dose IP, days 2, 5 and 10

CCOc1cc2ncc(C#N)c(Nc3ccc(F)c(Cl)c3)c2cc1NC(=O)/C=C/CN(C)C [EKB-569]
% T/C Day 7 [1]: 66%
% T/C Day 14 [1]: 80%
% T/C Day 21 [1]: 78%
Relative Tumor Growth Day 7 [1]: 1.28
Relative Tumor Growth Day 14 [1]: 2.57
Relative Tumor Growth Day 21 [1]: 8.24
S/T = # of Survivors/# of Treated on Day +21 [1]: 10/10

CN(C)c1ccc(-c2nc3c(s2)C(O)CC3)cc1 (stereo not shown) [Example 5, 2-[4-(dimethylamino)phenyl]-5,6-dihydro-4H-cyclopenta[d][1,3]thiazol-6-ol]
IC50 [2]: 54.3 µM
IC50 [3]: 1.3 µM
Selectivity Ratio D8 [3]: 43
IC50 [4]: 1.8 µM
Selectivity Ratio F3 [4]: 30

CN(C)c1ccc(-c2nc3c(s2)[C@H](O)CC3)cc1 [Example 6, (6R)-2-[4-(dimethylamino)phenyl]-5,6-dihydro-4H-cyclopenta[d][1,3]thiazol-6-ol]
IC50 [2]: 43.4 µM
IC50 [3]: 0.46 µM
Selectivity Ratio D8 [3]: 95
IC50 [4]: 0.84 µM
Selectivity Ratio F3 [4]: 52

CN(C)c1cc(F)c(-c2nc3c(s2)C(O)CCC3)c(F)c1 (stereo not shown) [Example 25, 2-[4-(dimethylamino)-2,6-difluorophenyl]-4,5,6,7-tetrahydro-1,3-benzothiazol-7-ol]
IC50 [2]: ≥ 161 µM
IC50 [3]: 2.6 µM
Selectivity Ratio D8 [3]: 62
IC50 [4]: 6.7 µM
Selectivity Ratio F3 [4]: 24

Cc1cc(N(C)C)ccc1-c1nc2c(s1)C(O)CCC2 (stereo not shown) [Example 45, 2-[4-(dimethylamino)-2-methylphenyl]-4,5,6,7-tetrahydro-1,3-benzothiazol-7-ol]
IC50 [2]: 133 µM
selectivity ratios (IC50 HCT116 FB/IC50 securin KO) [3]: high selectivity ratios
IC50 [3]: 0.54 µM
Selectivity Ratio D8 [3]: 245
IC50 [4]: 1.1 µM
Selectivity Ratio F3 [4]: 121

CCc1cc(N(C)C)ccc1-c1nc2c(s1)C(O)CCC2 (stereo not shown) [Example 47, 2-[4-(dimethylamino)-2-ethylphenyl]-4,5,6,7-tetrahydro-1,3-benzothiazol-7-ol]
IC50 [2]: 76.4 µM
IC50 [3]: 0.43 µM
Selectivity Ratio D8 [3]: 179
IC50 [4]: 3 µM
Selectivity Ratio F3 [4]: 26

COC(=O)c1cc(N(C)C)ccc1-c1nc2c(s1)C(O)CCC2 (stereo not shown) [Example 55, methyl 5-(dimethylamino)-2-(7-hydroxy-4,5,6,7-tetrahydro-1,3-benzothiazol-2-yl)benzoate]
IC50 [2]: 105 µM
IC50 [3]: 0.65 µM
Selectivity Ratio D8 [3]: 160
IC50 [4]: 1.2 µM
Selectivity Ratio F3 [4]: 90

CN(C)c1ccc(-c2nc3c(s2)C(O)CCC3)c(CO)c1 (stereo not shown) [Example 60, 2-[4-(dimethylamino)-2-(hydroxymethyl)phenyl]-4,5,6,7-tetrahydro-1,3-benzothiazol-7-ol]
IC50 [2]: 97.5 µM
IC50 [3]: 0.091 µM
Selectivity Ratio D8 [3]: 1076
IC50 [4]: 0.12 µM
Selectivity Ratio F3 [4]: 821

CN(C)c1ccc(-c2nc3c(s2)C(O)CCC3)c(C=O)c1 (stereo not shown) [Example 67]
IC50 [2]: 31 µM
IC50 [3]: 0.059 µM
Selectivity Ratio D8 [3]: 525
IC50 [4]: 0.15 µM
Selectivity Ratio F3 [4]: 206

CN(C)c1ccc(-c2nc3c(s2)C(O)CCC3)c(C(C)(C)O)c1 (stereo not shown) [Example 72, 2-[4-(dimethylamino)-2-(1-hydroxy-1-methylethyl)phenyl]-4,5,6,7-tetrahydro-1,3-benzothiazol-7-ol]
IC50 [2]: 54 µM
IC50 [3]: 1 µM
Selectivity Ratio D8 [3]: 52
IC50 [4]: 2 µM
Selectivity Ratio F3 [4]: 27

CCOc1cc2ncc(C#N)c(Nc3ccc(OCc4ccccn4)c(Cl)c3)c2cc1NC(=O)/C=C/CN(C)C [HKI-272, reference compound]
% T/C Day 7 [1]: 62%
% T/C Day 14 [1]: 89%
% T/C Day 21 [1]: 76%
Relative Tumor Growth Day 7 [1]: 1.19
Relative Tumor Growth Day 14 [1]: 2.86
Relative Tumor Growth Day 21 [1]: 8.03
S/T = # of Survivors/# of Treated on Day +21 [1]: 10/10

COc1cc(Nc2c(C#N)cnc3cc(OCCCN4CCN(C)CC4)c(OC)cc23)c(Cl)cc1Cl [SKI-606 20]
Relative Tumor Growth Day 8 [5, 6]: 1.97
Relative Tumor Growth Day 15 [5, 6]: 2.44
Relative Tumor Growth Day 22 [5, 6]: 3.91
Relative Tumor Growth Day 29 [5, 6]: 5.73
Relative Tumor Growth Day 36 [5, 6]: 10.26
S/T = # of Survivors/# of Treated on Day +36 [5, 6]: 8/10
% T/C Day 8 [5, 7]: 52%
% T/C Day 15 [5, 7]: 27%
% T/C Day 22 [5, 7]: 18%
% T/C Day 8 [5, 8]: 40%
% T/C Day 15 [5, 8]: 22%
% T/C Day 22 [5, 8]: 16%
Relative Tumor Growth Day 8 [5, 8]: 2.09
Relative Tumor Growth Day 15 [5, 8]: 2.77
Relative Tumor Growth Day 22 [5, 8]: 3.62
Relative Tumor Growth Day 29 [5, 8]: 7.22
Relative Tumor Growth Day 36 [5, 8]: 10.19
S/T = # of Survivors/# of Treated on Day +36 [5, 8]: 10/10

CC[C@]1(O)C[C@H]2CN(CCc3c([nH]c4ccccc34)[C@@](C(=O)OC)(c3cc4c(cc3OC)N(C=O)[C@H]3[C@@](O)(C(=O)OC)[C@H](OC(C)=O)[C@]5(CC)C=CCN6CC[C@]43[C@@H]65)C2)C1 [Vincristine, reference compound]
% T/C Day 8 [5, 9]: 33%
% T/C Day 15 [5, 9]: 23%
% T/C Day 22 [5, 9]: 30%
Relative Tumor Growth Day 8 [5, 9]: 1.75
Relative Tumor Growth Day 15 [5, 9]: 2.84
Relative Tumor Growth Day 22 [5, 9]: 6.71
Relative Tumor Growth Day 29 [5, 9]: 11.47
